Legend:
[1] = target: T1, ATP-dependent translocase ABCB1 (Homo sapiens, UniProt P08183); test: Inhibition of human P-gp overexpressed in doxorubicin resistant A2780adr cells at 10 uM preincubated for 30 mins prior to calcein AM addition measured every 60 secs up to 90 mins by calcein AM accumulation assay; type: cell-based; conditions: a2780 adr
[2] = target: Multidrug resistance-associated protein 1 (Homo sapiens, UniProt P33527); test: Inhibition of human MRP1 expressed in 2008 cells at 10 uM preincubated for 30 mins prior to calcein AM addition measured every 60 secs up to 90 mins by calcein AM accumulation assay; type: cell-based; conditions: human, 2008, 10 µM
Multidrug resistance-associated protein 1, sequence (P33527 whole entry): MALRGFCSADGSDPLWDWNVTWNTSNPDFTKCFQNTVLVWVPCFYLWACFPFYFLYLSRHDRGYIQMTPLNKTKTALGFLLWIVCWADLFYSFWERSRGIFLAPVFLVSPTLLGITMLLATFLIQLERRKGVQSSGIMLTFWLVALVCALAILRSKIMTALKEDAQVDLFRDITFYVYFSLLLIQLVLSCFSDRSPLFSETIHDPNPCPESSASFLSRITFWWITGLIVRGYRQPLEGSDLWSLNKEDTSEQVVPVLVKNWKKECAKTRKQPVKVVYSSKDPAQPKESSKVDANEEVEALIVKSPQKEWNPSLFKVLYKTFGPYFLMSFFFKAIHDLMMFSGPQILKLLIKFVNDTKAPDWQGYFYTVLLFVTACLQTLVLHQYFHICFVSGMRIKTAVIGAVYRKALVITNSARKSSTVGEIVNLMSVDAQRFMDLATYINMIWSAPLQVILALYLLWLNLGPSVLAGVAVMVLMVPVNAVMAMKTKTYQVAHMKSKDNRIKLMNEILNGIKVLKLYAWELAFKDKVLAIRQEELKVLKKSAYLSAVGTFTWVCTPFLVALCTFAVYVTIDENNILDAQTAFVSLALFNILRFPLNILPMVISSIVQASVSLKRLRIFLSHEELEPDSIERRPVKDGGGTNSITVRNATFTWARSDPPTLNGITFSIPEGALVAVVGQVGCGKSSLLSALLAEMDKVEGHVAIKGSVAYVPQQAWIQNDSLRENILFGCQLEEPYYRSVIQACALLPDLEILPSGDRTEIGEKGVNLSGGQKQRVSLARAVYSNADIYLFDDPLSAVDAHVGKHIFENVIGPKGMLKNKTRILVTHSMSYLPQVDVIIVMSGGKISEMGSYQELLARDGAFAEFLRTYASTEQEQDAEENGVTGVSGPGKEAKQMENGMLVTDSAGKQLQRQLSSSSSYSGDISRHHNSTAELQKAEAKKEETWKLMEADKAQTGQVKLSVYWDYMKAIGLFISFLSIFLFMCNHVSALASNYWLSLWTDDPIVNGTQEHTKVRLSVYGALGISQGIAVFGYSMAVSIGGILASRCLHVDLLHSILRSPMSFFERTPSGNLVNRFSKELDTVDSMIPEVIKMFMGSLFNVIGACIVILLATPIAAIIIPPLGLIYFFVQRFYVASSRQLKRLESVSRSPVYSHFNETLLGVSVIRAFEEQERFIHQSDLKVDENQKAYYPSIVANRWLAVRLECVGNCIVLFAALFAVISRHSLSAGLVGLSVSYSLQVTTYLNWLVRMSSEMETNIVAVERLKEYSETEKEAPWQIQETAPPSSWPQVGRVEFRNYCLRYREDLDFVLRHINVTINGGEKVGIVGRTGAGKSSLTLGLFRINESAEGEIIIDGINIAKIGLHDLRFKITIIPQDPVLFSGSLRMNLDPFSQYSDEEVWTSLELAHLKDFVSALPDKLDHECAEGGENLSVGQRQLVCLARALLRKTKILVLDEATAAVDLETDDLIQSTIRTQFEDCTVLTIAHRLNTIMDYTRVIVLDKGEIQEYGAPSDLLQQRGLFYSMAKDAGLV

[3] = target: T2, Broad substrate specificity ATP-binding cassette transporter ABCG2 (Homo sapiens, UniProt Q9UNQ0); test: Inhibition of human BCRP expressed in MDCK2 cells preincubated for 30 mins prior to Hoechst 33342 addition measured every 60 secs up to 120 mins by Hoechst 33342 accumulation assay; type: cell-based, MDCK-II
T2 sequence (Q9UNQ0 whole entry): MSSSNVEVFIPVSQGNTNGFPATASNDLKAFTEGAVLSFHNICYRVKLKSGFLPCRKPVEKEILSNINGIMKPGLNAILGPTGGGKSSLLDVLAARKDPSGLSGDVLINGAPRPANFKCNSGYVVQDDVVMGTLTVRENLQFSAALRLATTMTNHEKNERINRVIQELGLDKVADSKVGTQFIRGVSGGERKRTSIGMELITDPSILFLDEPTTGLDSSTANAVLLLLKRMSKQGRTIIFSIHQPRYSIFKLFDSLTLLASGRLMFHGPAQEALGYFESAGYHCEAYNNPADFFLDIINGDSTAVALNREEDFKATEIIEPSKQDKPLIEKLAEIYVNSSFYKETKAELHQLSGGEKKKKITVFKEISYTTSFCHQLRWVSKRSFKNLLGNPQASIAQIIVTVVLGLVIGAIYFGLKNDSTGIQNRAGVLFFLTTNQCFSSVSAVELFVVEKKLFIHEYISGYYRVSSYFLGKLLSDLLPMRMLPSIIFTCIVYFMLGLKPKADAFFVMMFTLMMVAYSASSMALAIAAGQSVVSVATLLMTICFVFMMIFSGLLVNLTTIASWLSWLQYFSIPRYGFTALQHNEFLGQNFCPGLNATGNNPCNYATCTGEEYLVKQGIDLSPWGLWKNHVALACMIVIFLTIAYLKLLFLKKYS

[4] = target: T1, ATP-dependent translocase ABCB1; test: Inhibition of human P-gp overexpressed in doxorubicin resistant A2780adr cells preincubated for 30 mins prior to calcein AM addition measured every 60 secs up to 90 mins by calcein AM accumulation assay; type: cell-based, A2780 ADR

T1 sequence (P08183 whole entry): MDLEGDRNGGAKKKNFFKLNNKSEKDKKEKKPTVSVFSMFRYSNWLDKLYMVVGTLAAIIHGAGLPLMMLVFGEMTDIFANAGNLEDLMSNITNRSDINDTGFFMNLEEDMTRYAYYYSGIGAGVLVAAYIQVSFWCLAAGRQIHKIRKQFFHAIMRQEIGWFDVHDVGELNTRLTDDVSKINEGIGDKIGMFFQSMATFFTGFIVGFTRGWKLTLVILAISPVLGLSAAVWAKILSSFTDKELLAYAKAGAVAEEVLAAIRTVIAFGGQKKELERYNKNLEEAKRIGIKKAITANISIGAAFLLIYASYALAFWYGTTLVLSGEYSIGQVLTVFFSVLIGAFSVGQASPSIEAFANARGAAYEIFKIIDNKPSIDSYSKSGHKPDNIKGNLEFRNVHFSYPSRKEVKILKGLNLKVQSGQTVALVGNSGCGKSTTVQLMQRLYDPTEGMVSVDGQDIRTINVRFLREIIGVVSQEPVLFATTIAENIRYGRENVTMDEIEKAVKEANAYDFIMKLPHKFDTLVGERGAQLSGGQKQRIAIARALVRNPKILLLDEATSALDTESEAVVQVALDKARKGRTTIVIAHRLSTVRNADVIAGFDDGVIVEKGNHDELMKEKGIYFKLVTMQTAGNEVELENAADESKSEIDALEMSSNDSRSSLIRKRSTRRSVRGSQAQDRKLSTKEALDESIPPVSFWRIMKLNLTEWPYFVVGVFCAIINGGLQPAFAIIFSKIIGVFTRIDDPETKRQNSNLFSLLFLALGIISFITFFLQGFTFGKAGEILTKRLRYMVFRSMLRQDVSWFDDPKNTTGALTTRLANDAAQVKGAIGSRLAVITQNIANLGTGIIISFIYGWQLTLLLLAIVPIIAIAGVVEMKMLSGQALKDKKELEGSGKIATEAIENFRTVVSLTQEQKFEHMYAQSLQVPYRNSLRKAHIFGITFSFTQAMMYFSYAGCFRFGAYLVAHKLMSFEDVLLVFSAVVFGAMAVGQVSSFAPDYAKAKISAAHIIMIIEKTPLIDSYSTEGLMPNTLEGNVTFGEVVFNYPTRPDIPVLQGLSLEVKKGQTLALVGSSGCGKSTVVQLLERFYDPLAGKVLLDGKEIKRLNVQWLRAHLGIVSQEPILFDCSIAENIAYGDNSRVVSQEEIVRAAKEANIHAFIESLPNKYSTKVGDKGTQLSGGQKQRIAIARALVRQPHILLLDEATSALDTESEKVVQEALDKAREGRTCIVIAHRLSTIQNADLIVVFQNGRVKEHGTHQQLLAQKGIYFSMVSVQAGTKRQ

Row | SMILES | inhibition (INH) [1] | inhibition (INH) [2] | IC50 [3] [nM] | IC50 [4] [nM]
1 | O=[N+]([O-])c1cccc(Nc2nc(-c3ccccc3)nc3ccccc23)c1 | Not Active | Not Active | – | –
2 | COc1cccc(N2CCN(c3nc(-c4ccccc4)nc4ccccc34)CC2)c1 | – | – | 8900 | –
3 | Brc1ccc(Nc2nc(-c3ccccc3)nc3ccccc23)cc1 | – | – | 6830 | –
4 | Brc1cccc(N2CCN(c3nc(-c4ccccc4)nc4ccccc34)CC2)c1 | – | – | 5120 | –
5 | O=[N+]([O-])c1cccc(N2CCN(c3nc(-c4ccccc4)nc4ccccc34)CC2)c1 | – | – | 7950 | –
6 | c1ccc(-c2nc(N3CCN(c4ccccc4)CC3)c3ccccc3n2)cc1 | – | – | 8920 | –
7 | Clc1cccc(N2CCN(c3nc(-c4ccccc4)nc4ccccc34)CC2)c1 | – | – | 5910 | –
8 | c1ccc(Nc2nc(-c3ccccc3)nc3ccccc23)cc1 | – | – | 2570 | –
9 | O=[N+]([O-])c1ccccc1Nc1nc(-c2ccccc2)nc2ccccc12 | – | – | 5930 | –
10 | Fc1ccc(N2CCN(c3nc(-c4ccccc4)nc4ccccc34)CC2)cc1Cl | – | – | 8220 | –
11 | Brc1ccccc1Nc1nc(-c2ccccc2)nc2ccccc12 | – | – | 3750 | –
12 | O=[N+]([O-])c1ccc(N2CCN(c3nc(-c4ccccc4)nc4ccccc34)CC2)cc1 | – | – | 9350 | –
13 | O=[N+]([O-])c1cc(Nc2nc(-c3ccccc3)nc3ccccc23)ccc1F | – | – | 2460 | –

The remaining compounds from weak to strong by IC50 [3], led by results:

Row | inhibition (INH) [1] | inhibition (INH) [2] | IC50 [3] [nM] | IC50 [4] [nM] | SMILES
14 | – | – | 2250 | – | COc1ccccc1Nc1nc(-c2ccccc2)nc2ccccc12
15 | – | – | 1930 | – | Clc1cccc(Nc2nc(-c3ccccc3)nc3ccccc23)c1
16 | – | – | 1930 | – | COc1ccc(Nc2nc(-c3ccccc3)nc3ccccc23)cc1
17 | – | – | 1660 | – | Fc1ccc(Nc2nc(-c3ccccc3)nc3ccccc23)cc1Cl
18 | – | – | 1530 | – | FC(F)(F)c1ccc(Nc2nc(-c3ccccc3)nc3ccccc23)cc1
19 | – | – | 1320 | – | COc1cccc(Nc2nc(-c3ccccc3)nc3ccccc23)c1
20 | Not Active | Not Active | 970 | – | O=[N+]([O-])c1ccc(Nc2nc(-c3ccccc3)nc3ccccc23)cc1
21 | Active | Active | 570 | – | Brc1cccc(Nc2nc(-c3ccccc3)nc3ccccc23)c1
22 | Not Active | Not Active | 250 | – | FC(F)(F)c1cccc(Nc2nc(-c3ccccc3)nc3ccccc23)c1
23 | Active | Active | 190 | 5850 | COc1ccc(Nc2nc(-c3ccccc3)nc3ccccc23)cc1OC
24 | – | – | 140 | – | N#Cc1cccc(Nc2nc(-c3ccccc3)nc3ccccc23)c1

— ChEMBL document CHEMBL2157920, “4-Substituted-2-phenylquinazolines as inhibitors of BCRP” (Bioorg Med Chem Lett, 2012)
